{
  "source": "patent US20220031715A1",
  "about": "“COMPOSITIONS AND METHODS FOR ENHANCING WOUND HEALING” (priority 2018, published 2022)",
  "origin": "cited, not measured here",
  "key": {"[1]": {"test_system": "NR1I2/PAR, NR1i2/PXR, ESR1, NFE2L2/HEBP1, NR1 L3/CAR, and TSHR", "conditions": "at least six receptors"}},
  "data": [
    {"smiles": "O=P(Oc1ccccc1)(Oc1ccccc1)Oc1ccccc1", "note": "[TPP, triphenyl phosphate]", "values": [
      {"measurement": "toxicity", "setting": "mammals", "result": "very low toxicity"},
      {"measurement": "activation of hormone receptors", "setting": "[1]", "result": "activates"}
    ]}
  ]
}
